Read-outs that look alike come from different tables or passages of the source.
How the values were obtained:
[1] = test system: Plasmodium falciparum W2 strain; set-up: method as in earlier work; conditions: SYBR Green I, CQ-resistant strain; previously determined for 2a-b, 3a-b and reference molecules; read-out: IC50 PfW2; cited from earlier work
[2] = test system: Plasmodium falciparum W2 strain; assay: In vitro antimalarial activity, SYBR Green I fluorescence-based method, PfW2; format: cell-based; conditions: for Eudysmic Ratio PfW2: ratio of IC50s of the enantiomer pair, eutomer configuration in parentheses; for IC50: Plasmodium falciparum, W2, SYBR Green I, 48 h incubation, CQ-resistant strain, 1a-b re-assayed here, mean ± SD of three experiments
From the text: (§1) IC50s, corresponding to in vitro antimalarial activity against PfW2 and Pf3D7, was previously determined for compounds 2a-b, 3a-b and reference molecules using the SYBR Green I fluorescence-based method. As compounds 1a-b were previously screened using the hypoxanthine-tritied method, they were here re-assayed with the SYBR Green I fluorescence-based method described elsewhere for comparison with the other two Series (2 and 3) and reference molecules. When possible, eudysmic ratios were calculated. The SYBR green I fluorescence-based method is detailed below.
(§2) Compounds were dissolved in DMSO and then diluted in sterile water in order to obtain a range of concentrations from 40 nM to […] for the first screening against culture-adapted Plasmodium falciparum reference strains 3D7 and W2. […] These two strains were obtained from the collection of the National Museum of Natural History (Paris, France). The parasites were cultivated in RPMI medium (Sigma-Aldrich, Saint Quentin Fallavier, France) supplemented with 0.5% Albumax I (Life Technologies Corporation, Paisley, UK), hypoxanthine (Sigma-Aldrich, Saint Quentin Fallavier, France) and gentamicin (Sigma-Aldrich, Saint Quentin Fallavier, France) with human erythrocytes and were incubated at 37 °C with 5% CO2 [26]. The P. falciparum drug susceptibility test was carried out in 96-well flat-bottomed sterile plates in a final volume of 250 μL. After a 48 h incubation period with the drugs, quantities of DNA in treated and control cultures of parasites in human erythrocytes were quantified using the SYBR Green I (Sigma-Aldrich, Saint Quentin Fallavier, France) fluorescence-based method. Briefly, after incubation, the plates were frozen at −20 °C until use. The plates were then thawed for 2 h at room temperature, and 100 μL of each homogenized culture was transferred to a well of a 96-well flat-bottomed sterile black plate (Sigma-Aldrich, Saint Quentin Fallavier, France) that contained 100 μL of the SYBR Green I lysis buffer (2xSYBR Green, 20 mM Tris base pH 7.5, 5 mM EDTA, 0.008% w/v saponin, 0.08% w/v Triton X-100). Negative controls treated with solvent (typically DMSO or H2O) and positive controls (CQ and MQ) were added to each set of experiments. Plates were incubated for 1 h at room temperature and then read on a fluorescence plate reader (Tecan Trading AG, Männedorf, Switzerland) using excitation and emission wavelengths of 485 and 535 nm, respectively.

[3] = In vitro cytotoxicity, MTT assay on HepG2; format: cell-based, human; conditions: human, HepG2 cells; MTT, 72 h incubation; mean ± SD of three experiments
Method: (§3) Briefly, in 96-well plates, 100 µL of a cell culture adjusted to 25,000 cells/mL was dispensed and the plates were incubated at 37 °C in a humidified 5% CO2 atmosphere for 24 h to allow the cells to adhere to the bottom of the wells. After microscopic verification of the adherent cells, the culture medium was removed and replaced with 100 μL of medium with the compounds at various concentrations dissolved in DMSO (final concentration less than 0.5% v/v), and the plates were incubated for 72 h at 37 °C. Controls were DMSO in medium (0.5% v/v) without compound as blank. Then, the supernatant from each well was removed prior to the addition of 100 µL of 3-(4,5-dimethyl-2-thiazolyl)-2,5-diphenyl-2H-tetrazolium bromide (MTT) solution (0.5 mg/mL in culture medium) per well. After 2 h of incubation, the supernatant from each well was removed and 100 µL of DMSO was added to dissolve the resulting blue formazan crystals accumulated at the bottom of the wells. The plates were incubated for 5 min at 37 °C in a humidified 5% CO2 atmosphere. Then, the wells were homogenized by shaking the plates for 10 min with a microplate shaker. The absorbance was read using the Tecan’s Sunrise™ absorbance microplate reader at 570 nm with 630 nm as the reference wavelength. […] Selectivity index (SI) was calculated and defined as the ratio between CC50 values on HepG2 and IC50.

HepG2 cell line = assay: In vitro cytotoxicity, MTT assay on HepG2; format: cell-based, human; conditions: for Selectivity Index HepG2/3D7: CC50 on HepG2 / IC50 against Pf3D7; for SI times higher than that of parental drug MQ: versus MQ
Method: as §3

β-hematin formation = assay: Inhibition of β-hematin formation; format: biochemical; conditions: for Inhibition (%) of β-hematin formation at 2 mM: 24 h at 37 °C, versus negative control, mean ± SD of three experiments; for IC50: concentration range 0–2 mM, determined graphically
Method: Briefly, 100 μL of a fresh 6.5 mM solution of hemin (Sigma-Aldrich, SaintQuentin Fallavier, France) dissolved in 0.2 M NaOH was mixed with 100 μL of 3 M sodium acetate, 25 μL of 17.4 M acetic acid and 25 μL of the tested drug or controls (water and MeOH/DMSO). Magnetic stirring of the solution was used to avoid sedimentation. After 24 h incubation at 37 °C under shaking, the supernatant resulting from centrifugation for 15 min at 3300× g was discarded. The pellet was washed twice with 200 μL DMSO. After a final wash with water, the pellet was dissolved in 200 μL with 0.1 M NaOH. After a further 1:30 dilution, absorption at 405 nm was read using a microplate photometer (Multiskan® EX, Thermo Scientific, Waltham, MA, USA). CQ, MQ, ENP (considered as positive controls), water and MeOH/DMSO (considered as negative controls) were included in each experiment. […] Statistical significance was defined as a value of p ≤ 0.05.

[4] = test system: Plasmodium falciparum 3D7 strain; assay: In vitro antimalarial activity, SYBR Green I fluorescence-based method, Pf3D7; format: cell-based; conditions: for Eudysmic Ratio Pf3D7: ratio of IC50s of the enantiomer pair, eutomer configuration in parentheses; for IC50: Plasmodium falciparum, 3D7, SYBR Green I, 48 h incubation, strain with decreased susceptibility to MQ, 1a-b re-assayed here, mean ± SD of three experiments
From the text: as §1, §2

[5] = test system: Plasmodium falciparum 3D7 strain; set-up: method as in earlier work; conditions: SYBR Green I, strain with decreased susceptibility to MQ; previously determined for 2a-b, 3a-b and reference molecules; read-out: IC50 Pf3D7; cited from earlier work
PfW2 = test system: PfW2; set-up: method as in PMID 8513873; conditions: Figure 1; cited from earlier work
PfD6 = test system: PfD6; set-up: method as in PMID 8513873; conditions: Figure 1; cited from earlier work
Plasmodium falciparum = test system: Plasmodium falciparum; set-up: method as in PMID 8513873; conditions: Figure 1, (S,R) vs (R,S) MQ, (+)- vs (-)-ENP; cited from earlier work
hemozoin formation = conditions: according to different studies; cited from earlier work

IC50 (β-hematin formation) [mM] | IC50 [2] [nM] | IC50 [4] [nM] | Structure (SMILES) | IC50 [1] [nM] | Eudysmic Ratio PfW2 [2] | CC50 at 72 h [3] [µM] | Selectivity Index HepG2/3D7 (HepG2 cell line) | Inhibition (%) of β-hematin formation at 2 mM (β-hematin formation) | Eudysmic Ratio Pf3D7 [4] | IC50 [5] [nM] | SI times higher than that of parental drug MQ (HepG2 cell line) | IC50 (PfW2) [nM] | IC50 (PfD6) [nM] | IC50 ratio between enantiomers (Plasmodium falciparum) | inhibition of in vitro hemozoin formation (hemozoin formation)
> 2 |  |  | CCCCNC[C@H](O)c1ccc(-c2ccc(C(F)(F)F)cc2)nc1C(F)(F)F [3b] | 523 ± 95.8 | 4.0 (S) | > 100 | >72 | 40.6 ± 28.3% | 2.9 (S) | 1380 ± 993 |  |  |  |  | 
1.45 ± 0.3 |  |  | CCCCNC[C@@H](O)c1cc(-c2ccc(C(F)(F)F)cc2)nc(C(F)(F)F)c1 [2a] | 9 ± 0.4 | 1.1 (S) | 4 ± 0.9 | 87 | 73.5 ± 18.0% | 1.2 (S) | 45.8 ± 2.3 |  |  |  |  | 
1.31 ± 0.54 | 7.3 ± 0.9 | 15.1 ± 3.4 | CCCCNC[C@H](O)c1cc(C(F)(F)F)nc2c(C(F)(F)F)cccc12 [1b] |  | 1.46 (S) | 37.8 ± 1.9 | 2503 | 71.3 ± 10.3% | 1 |  | 15–23 times |  |  |  | 
1.77 ± 0.22 |  |  | CCCCNC[C@H](O)c1cc(-c2ccc(C(F)(F)F)cc2)nc(C(F)(F)F)c1 [2b] | 10 ± 0.7 | 1.1 (S) | 4 ± 0.7 | 70 | 54.0 ± 22.7% | 1.2 (S) | 56.7 ± 4.8 |  |  |  |  | 
> 2 |  |  | OC(c1cc(-c2ccc(C(F)(F)F)cc2)nc(C(F)(F)F)c1)C1CCCCN1 (stereo not drawn) [Enpiroline, enpiroline, reference compound] | 11.5 ± 2.3 |  | 4.4 ± 0.6 | 204 | 20.3 ND ^c % |  | 21.6 ± 1.4 |  | 2.85 | 16.4 | 1.15–1.22 times | 
1.17 ± 0.32 | 5 ± 0.3 | 15.1 ± 3.3 | CCCCNC[C@@H](O)c1cc(C(F)(F)F)nc2c(C(F)(F)F)cccc12 [1a] |  | 1.46 (S) | 25.6 ± 2.7 | 1695 | 81.8 ± 8.4% | 1 |  | 15–23 times |  |  |  | 
> 2 |  |  | CCCCNC[C@@H](O)c1ccc(-c2ccc(C(F)(F)F)cc2)nc1C(F)(F)F [3a] | 132 ± 10.3 |  | 11.6 ± 0.7 | 24 | 48.3 ND ^c % |  | 479 ± 38.2 |  |  |  |  | 
 |  |  | OC(c1cc(C(F)(F)F)nc2c(C(F)(F)F)cccc12)C1CCCCN1 (stereo not drawn) [Mefloquine, mefloquine, reference compound] | 31.8 ± 1 |  | 8.6 ± 2.6 |  | 61.3 ± 8.5% |  | 79.7 ± 8.5 |  | 3.9 | 34.4 |  | 
 |  |  | CCN(CC)CCCC(C)Nc1ccnc2cc(Cl)ccc12 (stereo not drawn) [Chloroquine, chloroquine, reference compound] | 199 ± 27 |  |  |  |  |  | 75.9 ± 3 |  |  |  |  | up to 90%

From publication PMC11678906, “Evaluation of In Vitro Inhibition of β-Hematin Formation: A Step Towards a Comprehensive Understanding of the Mechanism of Action of New Arylamino Alcohols” (Microorganisms, 2024)
